Measured values as given in patent publication US20260070890A1, “MODULATORS OF TAU LIQUID-LIQUID PHASE SEPARATION AND METHODS THEREOF” (JAWAHARLAL NEHRU CENTRE FOR ADVANCED SCIENTIFIC RESEARCH, priority 2023, published 2026).

How the values were obtained:
[1] = Steady state fluorescence Zn titration (Stern-Volmer fit); type: binding; settings: for Stern-Volmer binding constant (KSV): Table 1, with Zn, factor 10^4; for Stern-Volmer constant KSV with Zn^2+: compound 20 μM, Zn^2+ 2.5 to 40 μM, emission 530 nm
Description: The metal chelation ability of the compounds were assessed by UV-Visible absorbance and fluorescence spectroscopy by metal titration experiments. The small molecules were dissolved in HEPES buffer to make concentration of 20 μM and the metal ion (Zn^2+) was titrated with increasing concentration from 2.5 μM to 40 μM with 2 min of incubation between each addition. The change in absorbance and fluorescence spectra of compound was recorded and analysed for metal-small molecules interaction. The data was plotted in Origin (Pro), Version 2022 and analysed for determination of dissociation constant. The absorbance values were fitted using Benesi-Hildebrand equation to elucidate the binding constant of metals with small molecules.
where, KB is the binding or association constant, and A0 and Aα represent the peak absorbance of small molecules in the absence and presence of the highest concentration of metal ion (40 μM). The reciprocal of KB was taken as the dissociation constant, Kd. The change in fluorescence was fitted using Stern-Volmer equation to determine KSV: […]
where, F0 and F are the fluorescence intensities of small molecules in the absence and presence of metal ion, respectively. KSV is the Stern-Volmer quenching constant and [Q] is the concentration of quencher/enhancer (metal ion in this case).
Fluorescence spectroscopy is a reliable method to probe host-probe interactions, wherein the change in wavelength or intensity of emission spectrum is indicative of the strength of complexation. […] The classical Stern-Volmer equation was used to quantify the quenching and measure the Stern-Volmer constant, KSV wherein a higher value of KSV implies ability of the compound to form strong complexation with the host (Zn^2+). […] Due to the good binding affinity of the small molecules towards Zn, the designed small molecules were anticipated to chelate and interfere tau-Zn interaction.

tau protein = molecular target: T1, tau protein (Homo sapiens, UniProt P10636); assay: Tau intrinsic fluorescence quenching assay; type: binding; settings: tau 5 μM, compound 250 nM to 25 μM; for Kd: PBS pH 7.4, read-out: One site binding saturation fit Kd with tau
T1 construct: the full-length tau plasmid construct was transformed into E. coli, BL21 strain; inferred from the Ni-NTA purification; made in house; host or cells: E. coli BL21
Description: Tau protein was expressed and purified from E. coli as per known procedures. Briefly, the full-length tau plasmid construct was transformed into E. coli, BL21 strain and cultured in LB broth containing ampicillin ([…]) and chloramphenicol (50 μM) at 37° C. with continuous shaking at 180 rpm overnight. Then 1% of primary culture was transferred to 1 L of LB broth with antibiotics and incubated until it reaches OD of 0.6. The culture was induced with 1 mM IPTG and further cultured for 4 h. Cells were pelleted by centrifugation (7000 rpm) at 4° C. and resuspended in 50 mM phosphate buffer (0.3 M NaCl, 5 mM imidazole and 1 mM of PMSF, pH 8) and boiled to precipitate unwanted proteins for 10-15 min with intermittent agitation. The supernatant containing tau protein was collected and further purified by Ni-NTA affinity column chromatography. The purified tau protein was quantified by Bradford assay, characterised by SDS-PAGE and stored at −80° C. until further use.
Tau was dissolved in PBS buffer pH 7.4 to make 5 μM and titrated with small molecules from 250 nM to 25 μM concentration and fluorescence spectra was recorded by exiting at 274 nm. The emission spectra were plotted and analysed using Origin (Pro), Version 2022 and GraphPad Prism 9.4.0, fitted with one site binding saturation equation to find Kd. Further fluorescence quenching was fitted with Stern-Volmer equation to determine KSV.
The binding of small molecules with tau protein was monitored using tau intrinsic fluorescence spectral changes. […] The change in fluorescence intensity was fitted with one site binding saturation model to determine the Kd values. […] The KSV values were obtained from the Stern-Volmer equation to further quantify the extent of binding. […] This further emphasized the significance of the skeletal template of the modulators for tau interaction, rather than individual substituted aromatic amino acids.

Zn induced tau LLPS = molecular target: T2, Zn induced tau LLPS (Homo sapiens, UniProt P10636); assay: DIC microscopy, inhibition of Zn induced tau LLPS; type: biochemical; settings: tau 10 μM, Zn 40 μM, compound 20 μM added before Zn; Zn alone ~1.3
T2 construct: the full-length tau plasmid construct was transformed into E. coli, BL21 strain; inferred from the Ni-NTA purification; made in house; host or cells: E. coli BL21
Description: (§1) Liquid-liquid phase separation (LLPS) of tau was induced by molecular crowding in LLPS buffer (10 mM HEPES, 100 mM NaCl, 10% PEG 4000 and pH 7.4) and Zn.^32 Tau (10 μM) was suspended in LLPS buffer and added Zn (40 μM) incubate for 10 min to induce LLPS. For inhibition studies the tau in LLPS buffer was treated with small molecules (20 μM) before addition of Zn and for control same volume of vehicle (DMSO) was added. Dissolution samples were prepared by induction of LLPS for 10 min using Zn and followed by addition of small molecules and further incubation of 15 min. The samples were drop-cast (10 μL) on clean glass slides, mount with coverslip and immediately imaged in Olympus FLUOVIEW 3000 microscope in differential interface contrast (DIC) mode with 63× oil immersion objective. The images were acquired in multiple areas and planes to confirm the LLPS formation and its modulation by small molecules. Image analysis was performed by using ImageJ software, plotted normalised droplet size against control and analysed by GraphPad Prism.
(§2) The strong binding interaction of small molecules with Zn and tau encouraged us to evaluate them for modulation of Zn indued LLPS of tau. The ability of small molecules to inhibit tau LLPS and formation of droplets were studied by differential interface contrast (DIC) microscopy (FIG. 4). In the presence of Zn, tau readily undergoes LLPS and formed liquid like droplets within 10 min, as evident from the observed fusion droplets (FIG. 4A and inset). […] The inhibitory effect is in the order of 1c followed by 1b and 1a, which agrees with Zn and tau binding ability of small molecules. The LLPS of tau is through transient weak interactions and we believe that the small molecules with strong multivalent interactions with tau and Zn (chelation) potentially dissolve the phase separated droplets. […] The absorption spectra of 1c in the presence of tau and Zn (independently) and together was recorded. […]

[2] = Isothermal titration calorimetry of small molecule-Zn interaction; type: binding; settings: for ΔG of binding to Zn, ITC / ΔH (enthalpy) of binding to Zn, ITC / −TΔS (entropy) of binding to Zn, ITC: 298 K; for ΔG / ΔH / −TΔS: Table 1, with Zn
Description: ITC measurements were performed using a Malvern MicroCal-PEAQ ITC machine. Solutions of small molecules (compounds 1a, 1b and 1c) of the present disclosure and ZnCl2 were prepared in 100% DMSO. A revolving syringe was used to inject 26 consecutive 1.5 μL aliquots of Zn^2+ into the small molecules solution to ensure a continual mixing. The ITC cell reference power and temperature were set at […] and 25° C., respectively. To guarantee complete equilibration before the next injection, an interval of 150 s was maintained between subsequent measurements. Obtained isotherms were corrected by the subtraction of heat of dilution (buffer and small molecules). By using a single site binding model in the MicroCal PEAQ-ITC analysis software, nonlinear least squares fitting of the binding isotherms was carried out to estimate the thermodynamic parameters and dissociation constant (Kd).
The thermodynamic parameters of the interactions between small molecules and Zn^2+ were determined by ITC study. ZnCl2 solution in the injection syringe was titrated into compound solution in the sample cell. The heat change was measured and plotted as a function of the molar ratio of small molecules and Zn^2+. […] Right panel depicts the integrated binding isotherms as a function of the binary complex at 298 K. Fitting was obtained from the data points with one set of the binding site model). […] The Kd values determined from ITC validate the results obtained from other binding studies discussed vide supra (lower Kd and higher KSV). Both endothermic and exothermic peaks were observed upon binding of 1c and Zn resulting in a net negative ΔH value, and the data was fitted to exothermic one site binding model. For a reaction to be spontaneous, it must be favored by at least one of the factors, enthalpy or entropy.

[3] = molecular target: T3, Zn induced tau LLPS condensates (Homo sapiens, UniProt P10636); assay: DIC microscopy, dissolution of phase separated tau condensates; type: biochemical; settings: LLPS induced 10 min with Zn, then compound 15 min; Zn alone 2.26
T3 construct: the full-length tau plasmid construct was transformed into E. coli, BL21 strain; inferred from the Ni-NTA purification; made in house; host or cells: E. coli BL21
Description: as §1, §2

tau and Zn = molecular target: T4, tau and Zn (Homo sapiens, UniProt P10636); assay: UV-Visible spectroscopy, preferential binding among tau and Zn; settings: absorption spectra with tau, Zn and both
T4 construct: the full-length tau plasmid construct was transformed into E. coli, BL21 strain; inferred from the Ni-NTA purification; made in house; host or cells: E. coli BL21
Description: as §2, with “droplets. To evaluate the reversal effect of small molecules on phase separated droplets, tau LLPS was induced (10 min) and treated with small molecules for 15 min followed by visualization by DIC imaging. […] The droplet size was reduced to less than control in case of 1c treated samples (˜0.66-fold) indicating its ability to inhibit Zn induced tau LLPS. The modulatory effect of 1c prompted to look for its preferential interaction among tau and Zn.” for “droplets.”

T3 sequence (P10636 1-441 isoform P10636-8): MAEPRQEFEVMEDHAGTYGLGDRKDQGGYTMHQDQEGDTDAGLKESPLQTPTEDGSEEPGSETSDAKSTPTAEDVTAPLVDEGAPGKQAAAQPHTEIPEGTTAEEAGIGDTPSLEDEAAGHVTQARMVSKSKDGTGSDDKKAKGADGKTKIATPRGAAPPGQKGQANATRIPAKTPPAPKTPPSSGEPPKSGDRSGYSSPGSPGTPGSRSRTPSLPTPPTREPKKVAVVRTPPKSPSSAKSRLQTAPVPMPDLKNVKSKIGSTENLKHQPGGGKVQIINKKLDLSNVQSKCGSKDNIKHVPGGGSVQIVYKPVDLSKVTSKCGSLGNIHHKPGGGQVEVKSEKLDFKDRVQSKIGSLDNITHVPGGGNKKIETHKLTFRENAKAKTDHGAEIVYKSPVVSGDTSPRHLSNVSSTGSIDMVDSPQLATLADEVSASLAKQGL
T2 sequence (P10636 1-441 isoform P10636-8): as above
T1 sequence (P10636 1-441 isoform P10636-8): as above
T4 sequence (P10636 1-441 isoform P10636-8): as above

Structure (SMILES)	Stern-Volmer binding constant (KSV) [1]	Stern-Volmer constant KSV with Zn^2+ [1]	Stern-Volmer KSV with tau (tau protein)	Kd (tau protein)	droplet size (normalized to control), inhibition of LLPS (Zn induced tau LLPS)	ΔG of binding to Zn, ITC [2]	ΔH (enthalpy) of binding to Zn, ITC ([2]; unit not given)	−TΔS (entropy) of binding to Zn, ITC ([2]; unit not given)	ΔG ([2]; unit not given)	ΔH ([2]; unit not given)	−TΔS ([2]; unit not given)	droplet size (normalized to control), dissolution of condensates [3]	ΔH (enthalpy) of binding to Zn, ITC [2]	−TΔS (entropy) of binding to Zn, ITC [2]	preferential interaction among tau and Zn (tau and Zn)
O=C1N[C@@H](Cc2ccccc2)C(=O)N[C@H]1CCCCN1C(=O)c2cccc3c(N(Cc4ccccn4)Cc4ccccn4)ccc(c23)C1=O [Compound 1a, 2-(4-((2S,5S)-5-benzyl-3,6-dioxopiperazin-2-yl)butyl)-6-(bis(pyridin-2-ylmethyl)amino)-1H-benzo[de]isoquinoline-1,3(2H)-dione]	0.06 × × 10^4	0.06×10^4	190000 M⁻¹	2880 ± 510 nM	~1.19 fold	-3.48 kcal/mol	−13.1±0.13	9.59	−3.48	−13.1	9.59	~1.1 fold	–	–	–
O=C1N[C@@H](Cc2ccc(O)cc2)C(=O)N[C@H]1CCCCN1C(=O)c2cccc3c(N(Cc4ccccn4)Cc4ccccn4)ccc(c23)C1=O [Compound 1b, 6-(bis(pyridin-2-ylmethyl)amino)-2-(4-((2S,5S)-5-(4-hydroxybenzyl)-3,6-dioxopiperazin-2-yl)butyl)-1H-benzo[de]isoquinoline-1,3(2H)-dione]	1.7 × × 10^4	1.7×10^4	160000 M⁻¹	1740 ± 170 nM	~1.12 fold	-5.78 kcal/mol	–	–	−5.78	−0.551	−5.23	~1.6 fold	-0.551 ± 0.056 kcal/mol	-5.23 kcal/mol	–
O=C1N[C@@H](Cc2c[nH]c3ccccc23)C(=O)N[C@H]1CCCCN1C(=O)c2cccc3c(N(Cc4ccccn4)Cc4ccccn4)ccc(c23)C1=O [Compound 1c, 2-(4-((2S,5S)-5-((1H-indol-3-yl)methyl)-3,6-dioxopiperazin-2-yl)butyl)-6-(bis(pyridin-2-ylmethyl)amino)-1H-benzo[de]isoquinoline-1,3(2H)-dione]	1.7 × × 10^4	1.7×10^4	150000 M⁻¹	3950 ± 320 nM	~1 fold	-6.45 kcal/mol	–	–	−6.45	−0.693	−5.75	~0.66 fold	-0.698 ± 0.223 kcal/mol	-5.75 kcal/mol	preferential interaction of 1c with tau over Zn
